O=P(O)(CO)c1ccccc1
Conditions	solubility (mole fraction)
in 2-butanone, 288.15 K	0.0013
in 2-butanone, 293.16 K	0.0015
in 2-butanone, 298.17 K	0.0017
in 2-butanone, 303.18 K	0.0019
in 2-butanone, 308.14 K	0.0022
in 2-butanone, 313.16 K	0.0024
in 2-butanone, 318.17 K	0.0027
in 2-butanone, 323.16 K	0.0029
in 2-butanone, 328.17 K	0.0033
in 2-butanone, 333.16 K	0.0037
in 2-ethoxyethanol, 293.16 K	0.0461
in 2-ethoxyethanol, 298.17 K	0.0512
in 2-ethoxyethanol, 303.18 K	0.0571
in 2-ethoxyethanol, 308.14 K	0.0638
in 2-ethoxyethanol, 313.16 K	0.0709
in 2-ethoxyethanol, 318.17 K	0.0777
in 2-ethoxyethanol, 323.16 K	0.0849
in 2-ethoxyethanol, 328.16 K	0.0937
in 2-ethoxyethanol, 333.15 K	0.102
in acetone, 288.15 K	0.0013
in acetone, 293.16 K	0.0015
in acetone, 298.17 K	0.0017
in acetone, 303.18 K	0.002
in acetone, 308.14 K	0.0023
in acetone, 313.16 K	0.0026
in acetone, 318.17 K	0.003
in acetone, 323.16 K	0.0035
in benzene, 293.16 K	0.0009
in benzene, 298.17 K	0.0011
in benzene, 303.18 K	0.0013
in benzene, 308.14 K	0.0016
in benzene, 313.16 K	0.0019
in benzene, 318.17 K	0.0022
in benzene, 323.16 K	0.0027
in benzene, 328.16 K	0.0032
in benzene, 333.15 K	0.0037
in cyclohexane, 288.15 K	0.001
in cyclohexane, 293.16 K	0.0011
in cyclohexane, 298.17 K	0.0012
in cyclohexane, 303.18 K	0.0013
in cyclohexane, 308.14 K	0.0014
in cyclohexane, 313.16 K	0.0015
in cyclohexane, 318.17 K	0.0016
in cyclohexane, 323.16 K	0.0017
in cyclohexane, 328.17 K	0.0018
in cyclohexane, 333.16 K	0.0019
in dichloromethane, 293.16 K	0.00061
in dichloromethane, 296.17 K	0.00079
in dichloromethane, 301.13 K	0.00119
in dichloromethane, 303.14 K	0.00143
in dichloromethane, 305.15 K	0.00169
in diethyl ether, 293.16 K	0.00113
in diethyl ether, 296.17 K	0.00138
in diethyl ether, 301.13 K	0.00188
in diethyl ether, 303.14 K	0.00212
in diethyl ether, 305.15 K	0.00238
in toluene, 288.15 K	0.001
in toluene, 293.16 K	0.0011
in toluene, 298.17 K	0.0013
in toluene, 303.18 K	0.0015
in toluene, 308.14 K	0.0018
in toluene, 313.16 K	0.002
in toluene, 318.17 K	0.0023
in toluene, 323.16 K	0.0026
in toluene, 328.17 K	0.0029
in toluene, 333.16 K	0.0033
in water, 307.45 K	0.0099
in water, 317.46 K	0.0206
in water, 327.57 K	0.0424
in water, 338.15 K	0.0966
in water, 342.45 K	0.117
in water, 346.58 K	0.166
in water, 352.8 K	0.247
in water, 357.11 K	0.312

COc1ccc(P(c2ccc(OC)cc2)c2ccc(OC)cc2)cc1
Conditions	solubility (mole fraction)
in 2-butanone, 293.16 K	0.00621
in 2-butanone, 298.17 K	0.00684
in 2-butanone, 303.18 K	0.00749
in 2-butanone, 308.14 K	0.00815
in 2-butanone, 313.16 K	0.00884
in 2-butanone, 318.17 K	0.00962
in 2-butanone, 323.16 K	0.0103
in 2-butanone, 328.17 K	0.0113
in 2-butanone, 333.16 K	0.0121
in 2-ethoxyethanol, 293.16 K	0.00522
in 2-ethoxyethanol, 298.17 K	0.00693
in 2-ethoxyethanol, 303.18 K	0.00862
in 2-ethoxyethanol, 308.14 K	0.0108
in 2-ethoxyethanol, 313.16 K	0.0136
in 2-ethoxyethanol, 318.17 K	0.0168
in 2-ethoxyethanol, 323.16 K	0.0209
in 2-ethoxyethanol, 328.17 K	0.0255
in 2-ethoxyethanol, 333.16 K	0.0311
in 2-ethoxyethanol, 338.17 K	0.0377
in 2-ethoxyethanol, 343.15 K	0.0454
in benzene, 293.16 K	0.00029
in benzene, 298.17 K	0.00037
in benzene, 303.18 K	0.00045
in benzene, 308.14 K	0.00054
in benzene, 313.16 K	0.00068
in benzene, 318.17 K	0.00082
in benzene, 323.16 K	0.00099
in cyclohexane, 299.15 K	0.00054
in cyclohexane, 304.05 K	0.00082
in cyclohexane, 308.85 K	0.00107
in cyclohexane, 313.95 K	0.00151
in cyclohexane, 318.45 K	0.00231
in cyclohexane, 323.65 K	0.00326
in cyclohexane, 328.45 K	0.00436
in cyclohexane, 332.85 K	0.00596
in cyclohexane, 337.65 K	0.00848
in diethyl ether, 293.16 K	0.00587
in diethyl ether, 296.17 K	0.00721
in diethyl ether, 299.18 K	0.00889
in diethyl ether, 301.16 K	0.0101
in diethyl ether, 303.15 K	0.0114
in ethanol, 293.16 K	0.00084
in ethanol, 298.17 K	0.00102
in ethanol, 303.18 K	0.00121
in ethanol, 308.14 K	0.00142
in ethanol, 313.16 K	0.00173
in ethanol, 318.17 K	0.00202
in ethanol, 323.16 K	0.00241
in methanol, 293.16 K	0.00022
in methanol, 298.17 K	0.00029
in methanol, 303.18 K	0.0004
in methanol, 308.14 K	0.00051
in methanol, 313.16 K	0.00066
in methanol, 318.17 K	0.00083
in methanol, 323.16 K	0.00107
in toluene, 293.16 K	0.00035
in toluene, 298.17 K	0.00042
in toluene, 303.18 K	0.00051
in toluene, 308.14 K	0.00061
in toluene, 313.16 K	0.00075
in toluene, 318.17 K	0.00089
in toluene, 323.16 K	0.00105
in toluene, 328.17 K	0.00123
in toluene, 333.15 K	0.00145

O=P1(O)OCC2(CO1)COP(=O)(O)OC2 (stereo unspecified)
Conditions	solubility (mole fraction)
in 1,4-dioxane, 293.16 K	0.00025
in 1,4-dioxane, 298.17 K	0.00028
in 1,4-dioxane, 303.16 K	0.00031
in 1,4-dioxane, 308.17 K	0.00035
in 1,4-dioxane, 313.16 K	0.0004
in 1,4-dioxane, 318.18 K	0.00045
in 1,4-dioxane, 323.16 K	0.0005
in 1,4-dioxane, 328.16 K	0.00055
in 1,4-dioxane, 333.17 K	0.0006
in 1,4-dioxane, 338.15 K	0.00066
in 2-butanone, 293.16 K	0.0006
in 2-butanone, 298.17 K	0.0007
in 2-butanone, 303.16 K	0.0008
in 2-butanone, 308.17 K	0.001
in 2-butanone, 313.16 K	0.0011
in 2-butanone, 318.18 K	0.0013
in 2-butanone, 323.16 K	0.0015
in 2-butanone, 328.16 K	0.0016
in 2-butanone, 333.17 K	0.0018
in acetic acid, 293.16 K	0.00017
in acetic acid, 298.17 K	0.00022
in acetic acid, 303.16 K	0.00026
in acetic acid, 308.17 K	0.00032
in acetic acid, 313.16 K	0.0004
in acetic acid, 318.18 K	0.00048
in acetic acid, 323.16 K	0.00057
in acetic acid, 328.16 K	0.00067
in acetic acid, 333.17 K	0.00078
in acetic acid, 338.15 K	0.00092
in acetone, 295.75 K	0.004
in acetone, 297.55 K	0.0041
in acetone, 299.85 K	0.0043
in acetone, 301.45 K	0.0044
in acetone, 303.15 K	0.0045
in acetone, 305.35 K	0.0047
in acetone, 307.95 K	0.0049
in acetone, 309.15 K	0.005
in acetone, 313.35 K	0.0053
in acetone, 317.15 K	0.0057
in acetone, 319.15 K	0.0058
in acetonitrile, 309.35 K	0.0006
in acetonitrile, 311.25 K	0.0007
in acetonitrile, 313.25 K	0.0009
in acetonitrile, 315.45 K	0.001
in acetonitrile, 317.35 K	0.0012
in acetonitrile, 319.55 K	0.0015
in acetonitrile, 321.55 K	0.0017
in acetonitrile, 323.25 K	0.002
in acetonitrile, 325.75 K	0.0025
in acetonitrile, 327.45 K	0.0028
in acetonitrile, 329.45 K	0.0032
in acetonitrile, 331.55 K	0.0038
in benzene, 293.16 K	0.00031
in benzene, 298.17 K	0.00038
in benzene, 303.16 K	0.00047
in benzene, 308.17 K	0.00059
in benzene, 313.16 K	0.0007
in benzene, 318.18 K	0.00088
in benzene, 323.16 K	0.00103
in benzene, 328.16 K	0.00123
in benzene, 333.17 K	0.00146
in benzene, 338.15 K	0.00176
in chloroform, 293.16 K	0.00046
in chloroform, 298.17 K	0.00054
in chloroform, 303.16 K	0.00067
in chloroform, 308.17 K	0.00081
in chloroform, 313.16 K	0.00094
in chloroform, 318.18 K	0.00114
in chloroform, 323.16 K	0.00137
in chloroform, 328.16 K	0.00163
in chloroform, 333.17 K	0.00192
in chloroform, 338.15 K	0.00222
in cyclohexane, 293.16 K	0.00016
in cyclohexane, 298.17 K	0.00019
in cyclohexane, 303.16 K	0.00022
in cyclohexane, 308.17 K	0.00025
in cyclohexane, 313.16 K	0.00028
in cyclohexane, 318.18 K	0.00032
in cyclohexane, 323.16 K	0.00037
in cyclohexane, 328.16 K	0.00041
in cyclohexane, 333.15 K	0.00046
in cyclohexane, 338.15 K	0.00052
in dichloromethane, 291.16 K	0.00027
in dichloromethane, 295.18 K	0.00032
in dichloromethane, 299.16 K	0.00037
in dichloromethane, 303.19 K	0.00045
in dichloromethane, 305.2 K	0.00048
in dichloromethane, 309.15 K	0.00056
in diethyl ether, 291.16 K	0.00053
in diethyl ether, 295.18 K	0.00073
in diethyl ether, 299.16 K	0.00096
in diethyl ether, 303.19 K	0.00124
in diethyl ether, 305.2 K	0.0014
in ethyl acetate, 293.16 K	0.00078
in ethyl acetate, 298.17 K	0.00092
in ethyl acetate, 303.16 K	0.00109
in ethyl acetate, 308.17 K	0.00129
in ethyl acetate, 313.16 K	0.00152
in ethyl acetate, 318.18 K	0.00177
in ethyl acetate, 323.16 K	0.00204
in ethyl acetate, 328.16 K	0.00229
in ethyl acetate, 333.17 K	0.00271
in ethyl acetate, 338.15 K	0.00315
in toluene, 293.16 K	0.00046
in toluene, 298.17 K	0.00059
in toluene, 303.16 K	0.00071
in toluene, 308.17 K	0.00086
in toluene, 313.16 K	0.00104
in toluene, 318.18 K	0.00122
in toluene, 323.16 K	0.00146
in toluene, 328.16 K	0.00176
in toluene, 333.17 K	0.00209
in toluene, 338.15 K	0.00248

From BigSolDB 2.1
